Values after ≈ are worked out from the molar mass of the structure shown.
What was measured:
Staphylococcus aureus [1] = assay: Antibacterial activity against Staphylococcus aureus ATCC 29213 incubated for 18 to 24 hrs by broth microdilution method; format: functional
Escherichia coli [2] = assay: Inhibition of Escherichia coli MurA assessed as residual enzyme activity at 100 uM using UDP-GlcNAc and PEP as substrate incubated for 15 mins by Malachite green method
Escherichia coli [3] = assay: Antibacterial activity against Escherichia coli ATCC 25922 incubated for 18 to 24 hrs by broth microdilution method; format: functional
Escherichia coli [4] = assay: Antibacterial activity against Escherichia coli; format: functional
[5] = Inhibition of Escherichia coli MurA
Staphylococcus aureus [6] = assay: Antibacterial activity against Staphylococcus aureus; format: functional
[7] = Inhibition of Escherichia coli MurA using UDP-GlcNAc and PEP as substrate incubated for 15 mins by Malachite green method

| SMILES | MIC (Staphylococcus aureus [1]) [µg/mL] | Activity (Escherichia coli [2]) [%] | MIC (Escherichia coli [3]) [µg/mL] | MIC (Escherichia coli [4]) [µg/mL] | IC50 [5] [µM] | MIC (Staphylococcus aureus [6]) [µg/mL] | IC50 [7] [µM] |
| --- | --- | --- | --- | --- | --- | --- | --- |
| O=c1c2ccccc2nc(-c2ccco2)n1CCO | > 128 | 91 | > 128 |  |  |  |  |
| C[C@@H]1O[C@@H]1P(=O)(O)O [FOSFOMYCIN] |  |  |  | 16 (≈ 116 µM) | 8.8 | 16 (≈ 116 µM) |  |
| O=C(O)c1ccc(-c2nc3ccccc3c(=O)[nH]2)cc1 | > 128 | 86 | > 128 |  |  |  |  |
| O=c1[nH]c(-c2ccoc2)nc2ccccc12 | > 128 | 91 | > 128 |  |  |  |  |
| O=C(O)Cn1c(-c2ccoc2)nc2ccccc2c1=O | > 128 | 74 | > 128 |  |  |  |  |
| O=c1[nH]c(-c2ccc(O)cc2)nc2ccccc12 | > 128 | 91 | > 128 |  |  |  |  |
| O=c1[nH]c(-c2ccc(N3CCOCC3)nc2)nc2ccccc12 | > 128 | 64 | > 128 |  |  |  |  |
| COC(=O)c1ccc(COc2ccc(-c3nc4ccccc4c(=O)[nH]3)cc2)cc1 | > 128 | 100 | > 128 |  |  |  |  |
| O=c1[nH]c(-c2ccc(-c3ccccc3)s2)nc2ccsc12 | ≥ 128 |  | > 128 |  |  |  | 22 to 30 |
| O=c1[nH]c(-c2ccc(OCc3cccc(Cl)c3)cc2)nc2ccccc12 | > 128 | 95 | > 128 |  |  |  |  |
| O=c1[nH]c(-c2cccc(Br)n2)nc2ccccc12 | > 128 | 91 | > 128 |  |  |  |  |
| O=c1[nH]c(-c2ccc(Br)o2)nc2ccccc12 | > 128 |  | > 128 |  |  |  | 56 |
| COC(=O)Cn1c(-c2ccco2)nc2ccccc2c1=O | > 128 | 66 | > 128 |  |  |  |  |
| O=c1[nH]c(-c2cccc(Br)c2)nc2ccccc12 | > 128 | 65 | > 128 |  |  |  |  |
| O=c1[nH]c(-c2ccc3cccc(O)c3n2)nc2ccccc12 | > 128 | 84 | > 128 |  |  |  |  |
| O=c1[nH]c(-c2cccc(Cl)c2)nc2ccccc12 | > 128 | 68 | > 128 |  |  |  |  |
| O=c1[nH]c(/C=C/c2ccccc2)nc2ccccc12 | > 128 |  | > 128 |  |  |  | 51 |
| O=Cc1ccc(-c2nc3ccccc3c(=O)[nH]2)cc1 | > 128 | 58 | > 128 |  |  |  |  |
| O=c1[nH]c(-c2ccc(-c3ccccc3)s2)nc2ccccc12 | > 128 |  | > 128 |  |  |  | 17 |
| O=c1[nH]c(-c2cccc(OCc3ccc(F)cc3)c2)nc2ccccc12 | > 128 |  | > 128 |  |  |  | 19 |
| O=C(O)c1ccc(COc2cccc(-c3nc4ccccc4c(=O)[nH]3)c2)cc1 | > 128 | 85 | > 128 |  |  |  |  |
| O=c1[nH]c(-c2ccc(OCc3ccccc3)cc2)nc2ccccc12 | > 128 |  | > 128 |  |  |  | 36 |

| SMILES | MIC (Staphylococcus aureus [1]) [µg/mL] | Activity (Escherichia coli [2]) [%] | MIC (Escherichia coli [3]) [µg/mL] | MIC (Escherichia coli [4]) [µg/mL] | IC50 [5] [µM] | MIC (Staphylococcus aureus [6]) [µg/mL] | IC50 [7] [µM] |
| --- | --- | --- | --- | --- | --- | --- | --- |
| O=c1[nH]c(-c2ccc3c(c2)OCO3)nc2ccccc12 | > 128 | 83 | > 128 |  |  |  |  |
| O=c1[nH]c(-c2cccc(OCc3cccc(Cl)c3)c2)nc2ccccc12 | > 128 | 98 | > 128 |  |  |  |  |
| O=c1[nH]c(-c2ccnc(N3CCOCC3)c2)nc2ccccc12 | > 128 | 70 | > 128 |  |  |  |  |
| CN(C)c1ccc(-c2nc(O)c3ccccc3n2)cc1 | > 128 | 97 | > 128 |  |  |  |  |
| COC(=O)c1ccc(COc2cccc(-c3nc4ccccc4c(=O)[nH]3)c2)cc1 | > 128 |  | > 128 |  |  |  | 21 |
| O=c1[nH]c(-c2ccc(F)c(F)c2)nc2ccccc12 | > 128 | 67 | > 128 |  |  |  |  |
| CC(C)n1c(-c2ccco2)nc2ccccc2c1=O | 32 (≈ 126 µM) | 93 | > 128 |  |  |  |  |
| Cc1ccc(COc2ccc(-c3nc4ccccc4c(=O)[nH]3)cc2)cc1 | > 128 | 97 | > 128 |  |  |  |  |
| Cn1cc[n+](C(Cn2cnc3ccc(Cl)cc3c2=O)c2cc3cc(Br)ccc3o2)c1.[Cl-] (configuration not stated) |  |  |  | 128 |  | 16 |  |
| COC(=O)c1cccc(COc2ccc(-c3nc4ccccc4c(=O)[nH]3)cc2)c1 | > 128 | 100 | > 128 |  |  |  |  |
| O=c1[nH]c(-c2ccc(CO)o2)nc2ccccc12 | > 128 | 99 | > 128 |  |  |  |  |
| O=c1[nH]c(-c2ccc(-c3ccncc3)cc2)nc2ccccc12 | > 128 | 100 | > 128 |  |  |  |  |
| O=c1[nH]c(-c2cccc(OCc3ccc(Cl)cc3)c2)nc2ccccc12 | > 128 |  | > 128 |  |  |  | 8 |
| O=c1[nH]c(-c2ccc(OCc3ccccc3)cc2)nc2ccsc12 | ≥ 128 |  | ≥ 128 |  |  |  | 22 to 30 |
| Oc1nc(-c2cccs2)nc2ccccc12 | > 128 | 83 | > 128 |  |  |  |  |
| O=c1[nH]c(-c2ccc(-c3cc[nH]n3)o2)nc2ccccc12 | > 128 | 100 | > 128 |  |  |  |  |
| O=c1[nH]c(-c2cc(F)cc3c2OCOC3)nc2ccccc12 | > 128 | 99 | > 128 |  |  |  |  |
| O=c1[nH]c(-c2ccc([N+](=O)[O-])o2)nc2ccccc12 | 8 (≈ 31.1 µM) |  | 1 (≈ 3.89 µM) |  |  |  | 47 |
| O=c1[nH]c(-c2c[nH]cn2)nc2ccccc12 | > 128 | 88 | > 128 |  |  |  |  |
| O=c1[nH]c(-c2ccc([N+](=O)[O-])cc2)nc2ccccc12 | > 128 | 99 | > 128 |  |  |  |  |
| O=c1[nH]c(-c2cccc(OCc3ccccc3)c2)nc2ccccc12 | > 128 |  | > 128 |  |  |  | 23 |
| O=c1[nH]c(-c2ccc(Cl)cc2)nc2ccccc12 | > 128 | 72 | > 128 |  |  |  |  |

| SMILES | MIC (Staphylococcus aureus [1]) [µg/mL] | Activity (Escherichia coli [2]) [%] | MIC (Escherichia coli [3]) [µg/mL] | MIC (Escherichia coli [4]) [µg/mL] | IC50 [5] [µM] | MIC (Staphylococcus aureus [6]) [µg/mL] | IC50 [7] [µM] |
| --- | --- | --- | --- | --- | --- | --- | --- |
| O=c1[nH]c(-c2cccc(O)c2)nc2ccccc12 | > 128 | 80 | > 128 |  |  |  |  |
| O=C(O)c1ccc(COc2ccc(-c3nc4ccccc4c(=O)[nH]3)cc2)cc1 | > 128 | 92 | > 128 |  |  |  |  |
| N#Cc1ccc(-c2nc3ccccc3c(=O)[nH]2)cc1 | > 128 | 54 | > 128 |  |  |  |  |
| CCCCCCCOc1ccc(-c2nc3ccccc3c(=O)[nH]2)cc1 | > 128 |  | > 128 |  |  |  | 84 |
| O=c1[nH]c(-c2cn3ccsc3n2)nc2ccccc12 | 128 (≈ 477 µM) | 82 | > 128 |  |  |  |  |
| O=c1[nH]c(-c2ccc(-c3ccccc3)cc2)nc2ccccc12 | > 128 |  | > 128 |  |  |  | 21 |
| O=c1[nH]c(-c2ccc(Cn3cncn3)nc2)nc2ccccc12 | > 128 | 80 | > 128 |  |  |  |  |
| N#Cc1cccc(-c2nc3ccccc3c(=O)[nH]2)c1 | > 128 | 62 | > 128 |  |  |  |  |
| Oc1nc(-c2ccc(F)cc2)nc2ccccc12 | > 128 | 89 | > 128 |  |  |  |  |
| O=c1[nH]c(-c2ccco2)nc2ccsc12 | > 128 |  | > 128 |  |  |  | 94 |
| COc1ccc2occ(-c3nc4ccccc4c(=O)[nH]3)c(=O)c2c1 | > 128 | 100 | > 128 |  |  |  |  |
| Oc1nc(-c2ccncc2)nc2ccccc12 | > 128 | 82 | > 128 |  |  |  |  |
| Cc1ccc(-c2nc3ccccc3c(=O)[nH]2)o1 | > 128 |  | > 128 |  |  |  | 81 |
| O=c1[nH]c(-c2ccco2)nc2ccccc12 | > 128 |  | > 128 |  |  |  | 101 |
| COc1ccc(-c2nc(O)c3ccccc3n2)cc1 | > 128 | 71 | > 128 |  |  |  |  |
| CC(C)n1c(-c2ccc([N+](=O)[O-])o2)nc2ccccc2c1=O | 8 (≈ 26.7 µM) |  | 2 (≈ 6.68 µM) |  |  |  | 87 |
| O=c1c2ccccc2nc(-c2ccco2)n1Cc1ccccc1 | > 128 | 100 | > 128 |  |  |  |  |
| O=c1[nH]c(-c2ccc(O)cc2)nc2ccsc12 | > 128 | 80 | > 128 |  |  |  |  |
| O=C(O)c1cccc(COc2ccc(-c3nc4ccccc4c(=O)[nH]3)cc2)c1 | > 128 | 85 | > 128 |  |  |  |  |
| O=c1[nH]c(-c2cccc(OCc3ccc(C(F)(F)F)cc3)c2)nc2ccccc12 | > 128 | 88 | > 128 |  |  |  |  |
| Cn1c(-c2ccco2)nc2ccccc2c1=O | > 128 |  | > 128 |  |  |  | 72 |
| O=c1[nH]c(-c2ccc3ccccc3n2)nc2ccccc12 | > 128 | 100 | > 128 |  |  |  |  |

From ChEMBL document CHEMBL4033728, “Synthesis and structure-activity relationship study of novel quinazolinone-based inhibitors of MurA” (Bioorg Med Chem Lett, 2017)
